Columns and labels:
[1] = target: JAK 2 (Homo sapiens, UniProt O60674); test: Biochemical potency on JAK2, TR-FRET LANCE Ultra kinase assay (examples 1-99); settings: ATP at Km (0.7 μM), read-out: JAK2 inhibitory activity (pIC50 class) (converted)
Method in brief: (§1)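 LANCE Ultra TR-FRET with ULight-JAK-1 (Tyr1023) peptide at 30/50/20/10 nM and ATP (~Km) at 20/0.7/0.2/12 μM for JAK1/JAK2/JAK3/TYK2; enzymes 0.15/0.083/0.025/0.144 ng/μL. 1.5 h at r.t., EDTA stop, Eu-anti-phosphotyrosine read. 11-point 5-fold series from 20 μM; IC50 by variable-slope fit.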

[2] = target: TYK2 (Homo sapiens, UniProt P29597); test: Biochemical potency on Tyk2, TR-FRET LANCE Ultra kinase assay (examples 1-99); settings: ATP at Km (12 μM), read-out: Tyk2 inhibitory activity (pIC50 class) (converted)
Method in brief: as §1

[3] = target: JAK 1 (Homo sapiens, UniProt P23458); test: Biochemical potency on JAK1, TR-FRET LANCE Ultra kinase assay (examples 1-99); settings: ATP at Km (20 μM), read-out: JAK1 inhibitory activity (pIC50 class) (converted)
Method in brief: as §1

[4] = target: T1, JAK 3 (Homo sapiens, UniProt P52333); test: Biochemical potency on JAK3, TR-FRET LANCE Ultra kinase assay (examples 1-99); settings: ATP at Km (0.2 μM), read-out: JAK3 inhibitory activity (pIC50 class) (converted)
T1 sequence (P52333 1-1124): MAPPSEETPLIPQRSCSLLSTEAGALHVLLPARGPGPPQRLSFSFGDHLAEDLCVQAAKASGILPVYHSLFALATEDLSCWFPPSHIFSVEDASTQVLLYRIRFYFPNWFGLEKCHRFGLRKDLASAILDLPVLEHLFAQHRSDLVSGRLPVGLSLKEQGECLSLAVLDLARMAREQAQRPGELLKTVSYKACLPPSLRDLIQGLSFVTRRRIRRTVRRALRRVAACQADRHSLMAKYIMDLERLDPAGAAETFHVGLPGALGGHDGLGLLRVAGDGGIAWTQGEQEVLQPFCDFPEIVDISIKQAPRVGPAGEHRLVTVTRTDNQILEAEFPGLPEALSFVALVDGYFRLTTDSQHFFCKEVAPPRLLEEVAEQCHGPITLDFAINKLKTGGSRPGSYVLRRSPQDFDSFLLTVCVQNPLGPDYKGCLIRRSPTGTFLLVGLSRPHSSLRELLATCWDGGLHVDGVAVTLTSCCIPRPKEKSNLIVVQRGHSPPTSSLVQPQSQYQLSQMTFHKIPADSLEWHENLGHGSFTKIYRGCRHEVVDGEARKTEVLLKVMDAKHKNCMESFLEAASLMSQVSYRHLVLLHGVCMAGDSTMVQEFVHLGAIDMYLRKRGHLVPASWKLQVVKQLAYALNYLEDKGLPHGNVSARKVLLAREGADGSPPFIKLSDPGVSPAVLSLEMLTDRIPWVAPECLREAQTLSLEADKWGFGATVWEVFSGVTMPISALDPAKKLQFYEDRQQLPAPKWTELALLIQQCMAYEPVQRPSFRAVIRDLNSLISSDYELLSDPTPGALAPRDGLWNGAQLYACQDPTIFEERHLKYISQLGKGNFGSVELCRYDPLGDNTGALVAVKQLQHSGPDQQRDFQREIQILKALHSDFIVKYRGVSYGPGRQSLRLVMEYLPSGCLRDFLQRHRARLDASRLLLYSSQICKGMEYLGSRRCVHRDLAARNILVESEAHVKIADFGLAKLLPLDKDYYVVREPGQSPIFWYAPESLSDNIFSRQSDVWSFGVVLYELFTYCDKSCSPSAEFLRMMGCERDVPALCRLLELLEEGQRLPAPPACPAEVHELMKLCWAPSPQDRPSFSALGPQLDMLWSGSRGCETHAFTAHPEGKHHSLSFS
Method in brief: as §1

TYK2, sequence (P29597 whole entry): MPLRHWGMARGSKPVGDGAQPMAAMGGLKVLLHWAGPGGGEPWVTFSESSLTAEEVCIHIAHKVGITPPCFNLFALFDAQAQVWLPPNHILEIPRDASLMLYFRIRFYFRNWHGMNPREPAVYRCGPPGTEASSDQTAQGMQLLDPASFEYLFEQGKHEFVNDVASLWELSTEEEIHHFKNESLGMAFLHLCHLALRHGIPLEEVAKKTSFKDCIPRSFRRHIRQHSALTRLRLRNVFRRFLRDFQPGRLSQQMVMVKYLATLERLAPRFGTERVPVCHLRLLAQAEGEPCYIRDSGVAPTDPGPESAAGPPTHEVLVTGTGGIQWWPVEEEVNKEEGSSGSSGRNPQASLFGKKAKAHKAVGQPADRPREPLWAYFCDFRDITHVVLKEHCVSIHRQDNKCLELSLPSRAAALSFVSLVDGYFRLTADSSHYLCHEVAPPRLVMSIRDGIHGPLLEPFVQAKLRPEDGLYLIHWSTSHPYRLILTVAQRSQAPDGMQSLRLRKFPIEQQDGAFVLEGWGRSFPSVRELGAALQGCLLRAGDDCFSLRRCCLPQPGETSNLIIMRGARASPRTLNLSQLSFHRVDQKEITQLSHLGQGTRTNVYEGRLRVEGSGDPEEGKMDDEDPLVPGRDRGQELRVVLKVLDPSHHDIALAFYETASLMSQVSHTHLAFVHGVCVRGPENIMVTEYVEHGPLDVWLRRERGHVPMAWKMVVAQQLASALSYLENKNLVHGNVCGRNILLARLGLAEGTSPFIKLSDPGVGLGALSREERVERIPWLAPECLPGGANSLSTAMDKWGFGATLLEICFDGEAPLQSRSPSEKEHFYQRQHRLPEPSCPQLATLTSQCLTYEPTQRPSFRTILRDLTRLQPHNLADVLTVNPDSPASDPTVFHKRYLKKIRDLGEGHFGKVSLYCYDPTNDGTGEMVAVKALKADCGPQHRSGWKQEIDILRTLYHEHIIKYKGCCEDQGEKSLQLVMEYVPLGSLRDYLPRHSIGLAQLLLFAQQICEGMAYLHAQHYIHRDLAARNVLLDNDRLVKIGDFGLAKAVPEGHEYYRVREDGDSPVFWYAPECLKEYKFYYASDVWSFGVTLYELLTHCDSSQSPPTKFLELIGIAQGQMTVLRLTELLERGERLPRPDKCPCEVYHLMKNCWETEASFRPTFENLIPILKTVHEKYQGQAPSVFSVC
JAK 1, sequence (P23458 whole entry): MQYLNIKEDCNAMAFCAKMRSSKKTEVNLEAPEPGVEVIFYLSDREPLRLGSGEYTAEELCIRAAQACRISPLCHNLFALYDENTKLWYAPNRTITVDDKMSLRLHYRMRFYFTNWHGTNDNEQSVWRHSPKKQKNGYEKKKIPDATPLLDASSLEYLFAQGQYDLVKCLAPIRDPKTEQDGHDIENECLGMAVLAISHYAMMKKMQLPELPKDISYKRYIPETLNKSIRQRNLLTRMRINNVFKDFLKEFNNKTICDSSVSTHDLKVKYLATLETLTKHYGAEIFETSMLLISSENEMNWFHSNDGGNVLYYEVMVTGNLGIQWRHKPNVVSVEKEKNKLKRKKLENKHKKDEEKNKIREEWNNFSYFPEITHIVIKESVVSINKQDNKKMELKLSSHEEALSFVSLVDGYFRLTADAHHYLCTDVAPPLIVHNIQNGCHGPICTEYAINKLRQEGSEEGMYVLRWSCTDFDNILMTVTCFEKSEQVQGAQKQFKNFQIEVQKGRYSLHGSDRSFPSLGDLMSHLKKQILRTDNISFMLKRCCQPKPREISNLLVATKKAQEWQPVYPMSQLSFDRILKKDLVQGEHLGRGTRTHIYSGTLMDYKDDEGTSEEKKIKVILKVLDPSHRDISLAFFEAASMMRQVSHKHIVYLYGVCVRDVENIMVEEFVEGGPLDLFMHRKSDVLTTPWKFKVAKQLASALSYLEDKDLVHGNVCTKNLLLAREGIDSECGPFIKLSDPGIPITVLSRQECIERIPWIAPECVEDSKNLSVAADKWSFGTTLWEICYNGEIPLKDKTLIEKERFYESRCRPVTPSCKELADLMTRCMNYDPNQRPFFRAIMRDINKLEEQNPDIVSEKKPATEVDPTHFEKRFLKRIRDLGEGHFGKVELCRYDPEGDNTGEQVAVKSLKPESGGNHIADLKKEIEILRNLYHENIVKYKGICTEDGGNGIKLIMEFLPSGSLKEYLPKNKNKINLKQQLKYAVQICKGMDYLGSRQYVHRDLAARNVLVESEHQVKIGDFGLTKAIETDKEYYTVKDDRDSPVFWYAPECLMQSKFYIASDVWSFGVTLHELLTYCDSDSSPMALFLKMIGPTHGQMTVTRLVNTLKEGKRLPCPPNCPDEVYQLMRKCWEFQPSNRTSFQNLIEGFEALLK
JAK 2, sequence (O60674 whole entry): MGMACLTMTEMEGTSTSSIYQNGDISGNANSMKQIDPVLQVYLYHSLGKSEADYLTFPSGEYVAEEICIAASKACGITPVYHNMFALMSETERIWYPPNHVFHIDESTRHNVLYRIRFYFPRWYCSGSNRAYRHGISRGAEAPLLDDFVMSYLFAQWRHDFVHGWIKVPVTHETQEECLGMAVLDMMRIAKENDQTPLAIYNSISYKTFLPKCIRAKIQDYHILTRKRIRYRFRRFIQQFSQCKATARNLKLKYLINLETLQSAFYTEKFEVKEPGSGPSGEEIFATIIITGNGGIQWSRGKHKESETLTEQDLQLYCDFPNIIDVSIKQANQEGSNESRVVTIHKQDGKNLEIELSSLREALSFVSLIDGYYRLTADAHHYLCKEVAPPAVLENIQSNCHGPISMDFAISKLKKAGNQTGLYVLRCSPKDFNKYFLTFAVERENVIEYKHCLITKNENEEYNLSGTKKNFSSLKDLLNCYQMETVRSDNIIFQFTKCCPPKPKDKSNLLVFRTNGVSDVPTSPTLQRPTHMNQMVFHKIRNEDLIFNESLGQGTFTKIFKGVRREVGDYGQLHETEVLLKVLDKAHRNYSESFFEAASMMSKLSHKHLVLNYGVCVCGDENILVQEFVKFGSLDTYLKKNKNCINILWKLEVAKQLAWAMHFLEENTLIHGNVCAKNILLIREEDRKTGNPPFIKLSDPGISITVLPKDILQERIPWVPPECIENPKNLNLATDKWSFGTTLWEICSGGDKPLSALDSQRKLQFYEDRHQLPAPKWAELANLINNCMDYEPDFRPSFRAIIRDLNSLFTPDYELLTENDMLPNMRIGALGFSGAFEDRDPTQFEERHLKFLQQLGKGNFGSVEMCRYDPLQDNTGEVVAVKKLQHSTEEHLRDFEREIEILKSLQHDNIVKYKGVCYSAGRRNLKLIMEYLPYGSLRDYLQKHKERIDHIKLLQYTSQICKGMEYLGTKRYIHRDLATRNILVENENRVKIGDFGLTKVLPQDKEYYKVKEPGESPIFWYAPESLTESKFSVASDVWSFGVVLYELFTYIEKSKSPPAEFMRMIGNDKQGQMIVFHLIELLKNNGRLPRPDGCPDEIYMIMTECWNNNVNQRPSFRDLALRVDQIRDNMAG

IC50 [1] [nM] | IC50 [2] [nM] | IC50 [3] [nM] | IC50 [4] [nM] | SMILES
5.01 to 50.1 | > 50.1 | 5.01 to 50.1 | 5.01 to 50.1 | Cc1nn(-c2cc(SCC(=O)NCCO)ccc2OC(F)F)c2cc(-c3cnn4cccnc34)ncc12 [Example 69, 2-((4-(difluoromethoxy)-3-(3-methyl-6-(pyrazolo[1,5-a]pyrimidin-3-yl)-1H-pyrazolo[4,3-c]pyridin-1-yl)phenyl)thio)-N-(2-hydroxyethyl)acetamide]
5.01 to 50.1 | > 50.1 | 5.01 to 50.1 | ≤ 5.01 | Cc1nn(-c2cc(C(=O)Nc3nccs3)ccc2OC(F)F)c2cc(-c3cnn4cccnc34)ncc12 [Example 66, 4-(difluoromethoxy)-3-(3-methyl-6-(pyrazolo[1,5-a]pyrimidin-3-yl)-1H-pyrazolo[4,3-c]pyridin-1-yl)-N-(thiazol-2-yl)benzamide]
5.01 to 50.1 | > 50.1 | > 50.1 | 5.01 to 50.1 | COc1ccc(NS(C)(=O)=O)cc1-n1nc(NCCN(C)C)c2cnc(-c3cnn4cccnc34)cc21 [Example 86, N-(3-(3-((2-(dimethylamino)ethyl)amino)-6-(pyrazolo[1,5-a]pyrimidin-3-yl)-1H-pyrazolo[4,3-c]pyridin-1-yl)-4-methoxyphenyl)methanesulfonamide]
5.01 to 50.1 | > 50.1 | 5.01 to 50.1 | 5.01 to 50.1 | NC1CN(Cc2nn(-c3cc(Cl)ccc3OC(F)F)c3cc(-c4cnn5cccnc45)ncc23)C1 [Example 76, 1-((1-(5-chloro-2-(difluoromethoxy)phenyl)-6-(pyrazolo[1,5-a]pyrimidin-3-yl)-1H-pyrazolo[4,3-c]pyridin-3-yl)methyl)azetidin-3-amine]
≤ 5.01 | 5.01 to 50.1 | ≤ 5.01 | ≤ 5.01 | COc1cc(O)c(C)cc1-n1nc(C)c2cnc(-c3cnn4cccnc34)cc21 [Example 60, 5-methoxy-2-methyl-4-(3-methyl-6-(pyrazolo[1,5-a]pyrimidin-3-yl)-1H-pyrazolo[4,3-c]pyridin-1-yl)phenol]
5.01 to 50.1 | > 50.1 | 5.01 to 50.1 | 5.01 to 50.1 | COc1cnc(Cl)cc1-n1nc(C)c2cnc(-c3cnn4cccnc34)cc21 [Example 61, 1-(2-chloro-5-methoxypyridin-4-yl)-3-methyl-6-(pyrazolo[1,5-a]pyrimidin-3-yl)-1H-pyrazolo[4,3-c]pyridine]
≤ 5.01 | 5.01 to 50.1 | ≤ 5.01 | ≤ 5.01 | Cc1nn(-c2cc(SC3COC3)ccc2OC(F)F)c2cc(-c3cnn4cccnc34)ncc12 [Example 73, 1-(2-(difluoromethoxy)-5-(oxetan-3-ylthio)phenyl)-3-methyl-6-(pyrazolo[1,5-a]pyrimidin-3-yl)-1H-pyrazolo[4,3-c]pyridine]

Second part, the compound before the results:

SMILES | IC50 [1] [nM] | IC50 [2] [nM] | IC50 [3] [nM] | IC50 [4] [nM]
COc1ccc(C(F)(F)F)cc1-n1nc(C)c2cnc(-c3cnn4cccnc34)cc21 [Example 4, 1-(2-methoxy-5-(trifluoromethyl)phenyl)-3-methyl-6-(pyrazolo[1,5-a]pyrimidin-3-yl)-1H-pyrazolo[4,3-c]pyridine] | ≤ 5.01 | > 50.1 | 5.01 to 50.1 | 5.01 to 50.1
COc1ccc(S(=O)(=O)CCCO)cc1-n1nc(C)c2cnc(-c3cnn4cccnc34)cc21 [Example 9, 3-((4-methoxy-3-(3-methyl-6-(pyrazolo[1,5-a]pyrimidin-3-yl)-1H-pyrazolo[4,3-c]pyridin-1-yl)phenyl)sulfonyl)propan-1-ol] | ≤ 5.01 | > 50.1 | 5.01 to 50.1 | 5.01 to 50.1
OCc1nn(-c2cc(Cl)ccc2OC(F)F)c2cc(-c3cnn4cccnc34)ncc12 [Example 29, (1-(5-chloro-2-(difluoromethoxy)phenyl)-6-(pyrazolo[1,5-a]pyrimidin-3-yl)-1H-pyrazolo[4,3-c]pyridin-3-yl)methanol] | ≤ 5.01 | 5.01 to 50.1 | 5.01 to 50.1 | ≤ 5.01
COc1ccc(S(=O)(=O)NCC2CN(C)C2)cc1-n1nc(C)c2cnc(-c3cnn4cccnc34)cc21 [Example 17, 4-methoxy-3-(3-methyl-6-(pyrazolo[1,5-a]pyrimidin-3-yl)-1H-pyrazolo[4,3-c]pyridin-1-yl)-N-((1-methylazetidin-3-yl)methyl)benzenesulfonamide] | 5.01 to 50.1 | > 50.1 | 5.01 to 50.1 | > 50.1
Cc1nn(-c2cc(S(=O)(=O)CCN3CCCCC3)ccc2OC(F)F)c2cc(-c3cnn4cccnc34)ncc12 [Example 23, 1-(2-(difluoromethoxy)-5-((2-(piperidin-1-yl)ethyl)sulfonyl)phenyl)-3-methyl-6-(pyrazolo[1,5-a]pyrimidin-3-yl)-1H-pyrazolo[4,3-c]pyridine] | 5.01 to 50.1 | > 50.1 | 5.01 to 50.1 | 5.01 to 50.1
N#CCc1nn(-c2cc(Cl)ccc2OC(F)F)c2cc(-c3cnn4cccnc34)ncc12 [Example 28, 2-(1-(5-chloro-2-(difluoromethoxy)phenyl)-6-(pyrazolo[1,5-a]pyrimidin-3-yl)-1H-pyrazolo[4,3-c]pyridin-3-yl)acetonitrile] | ≤ 5.01 | 5.01 to 50.1 | ≤ 5.01 | ≤ 5.01
CN(C)[C@H]1C[C@@H](NC(=O)c2nn(-c3cc(Cl)ccc3OC(F)F)c3cc(-c4cnn5cccnc45)ncc23)C1 [Example 36, 1-(5-chloro-2-(difluoromethoxy)phenyl)-N-((1s,3s)-3-(dimethylamino)cyclobutyl)-6-(pyrazolo[1,5-a]pyrimidin-3-yl)-1H-pyrazolo[4,3-c]pyridine-3-carboxamide] | 5.01 to 50.1 | > 50.1 | 5.01 to 50.1 | 5.01 to 50.1
NCc1nn(-c2cc(Cl)ccc2OC(F)F)c2cc(-c3cnn4cccnc34)ncc12 [Example 32, (1-(5-chloro-2-(difluoromethoxy)phenyl)-6-(pyrazolo[1,5-a]pyrimidin-3-yl)-1H-pyrazolo[4,3-c]pyridin-3-yl)methanamine] | ≤ 5.01 | 5.01 to 50.1 | 5.01 to 50.1 | 5.01 to 50.1
CNC(=O)c1nn(-c2cc(Cl)ccc2OC(F)F)c2cc(-c3cnn4cccnc34)ncc12 [Example 33, 1-(5-chloro-2-(difluoromethoxy)phenyl)-N-methyl-6-(pyrazolo[1,5-a]pyrimidin-3-yl)-1H-pyrazolo[4,3-c]pyridine-3-carboxamide] | ≤ 5.01 | 5.01 to 50.1 | ≤ 5.01 | ≤ 5.01
CNS(=O)(=O)c1ccc(OC)c(-n2nc(C)c3cnc(-c4cnn5cccnc45)cc32)c1 [Example 14, 4-methoxy-N-methyl-3-(3-methyl-6-(pyrazolo[1,5-a]pyrimidin-3-yl)-1H-pyrazolo[4,3-c]pyridin-1-yl)benzenesulfonamide] | ≤ 5.01 | 5.01 to 50.1 | 5.01 to 50.1 | ≤ 5.01
COc1ccc(Cl)cc1-n1nc(C(=O)N[C@H]2C[C@@H](O)C2)c2cnc(-c3cnn4cccnc34)cc21 [Example 34, 1-(5-chloro-2-methoxyphenyl)-N-((1s,3s)-3-hydroxycyclobutyl)-6-(pyrazolo[1,5-a]pyrimidin-3-yl)-1H-pyrazolo[4,3-c]pyridine-3-carboxamide] | 5.01 to 50.1 | > 50.1 | 5.01 to 50.1 | 5.01 to 50.1
COc1ccc(Cl)cc1-n1nc(OC)c2cnc(-c3cnn4cccnc34)cc21 [Example 50, 1-(5-chloro-2-methoxyphenyl)-3-methoxy-6-(pyrazolo[1,5-a]pyrimidin-3-yl)-1H-pyrazolo[4,3-c]pyridine] | 5.01 to 50.1 | 5.01 to 50.1 | 5.01 to 50.1 | 5.01 to 50.1

— patent US20240279240A1, “HETEROCYCLIC DERIVATIVES AS JANUS KINASE INHIBITORS” (CHIESI FARMACEUTICI S.P.A., priority 2021, published 2024)
